Data as given in US10604489B2, “Compounds for the treatment of pain” (priority 2018, dated 2020).
Where a name gives a salt, the structure may show the parent alone. Read-outs that look alike come from different tables or passages of the source.

How the values were obtained:
[1] = molecular target: T1, human μ opioid receptor (Homo sapiens (Human), UniProt P35372); assay: Alternate functional activity ([35S]GTPγS binding) assay, SPA beads; type: biochemical; conditions: alternate assay: [35S]GTPγS 0.020 nM, CHO cell membranes with WGA PVT SPA beads
Method: The [^35S]GTPγS assay measures the functional properties of a compound by quantifying the level of G-protein activation following agonist binding in studies using stably transfected cells, and is considered to be a measure of the efficacy of a compound. Membranes from CHO (Chinese Hamster Ovary) cells that stably expressed one type of the cloned human opioid receptor human were used in the experiments. The assay buffer consisted of 50 mM Tris-HCl, pH 7.4, 3 mM MgCl2, 0.2 mM EGTA, 5 μM GDP, and 100 mM NaCl. CHO cell membranes stably expressing the human p opioid receptor were pre-incubated with scintillation proximity assay beads from PerkinElmer® (WGA PVT SPA) for 30 minutes, at 8 µg membrane and […] beads in a volume of 0.1 mL per reaction. In a final volume of 0.2 mL, 11 different concentrations of each test compound were incubated with the membrane-SPA bead mixture and a final concentration of 0.020 nM [35S]GTPγS for 1.5 hours with gentle shaking. Reactions were then incubated for 5 hours. Data are the mean EC50 values ±S.E.M. EC50 values (nM) for compounds 12, 16, 19, 20, 149, 151, 152, 157, 160, 161, 164-169, 172, 173, 180-197, and 199-207 are shown in Table 1.

[2] = molecular target: μ-receptor (Homo sapiens (Human), UniProt P35372); assay: Receptor binding, competitive displacement of [3H]DAMGO; conditions: 0.25 nM [3H]DAMGO, CHO cell membrane protein, 60 min at 25° C.
In short: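 Membranes from CHO cells stably expressing cloned human μ-opioid receptor incubated 60 min at 25 °C with 12 compound concentrations and 0.25 nM [3H]DAMGO in 50 mM Tris-HCl pH 7.5; nonspecific binding with 10 μM naloxone. Filtration and scintillation counting; Ki from IC50 by Cheng-Prusoff.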

[3] = molecular target: T1, human μ opioid receptor; assay: Functional activity ([35S]GTPγS binding); type: biochemical; conditions: [35S]GTPγS 0.080 nM, CHO cell membranes, 60 min at 30° C., filtration
In short: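 Membranes from stably transfected CHO cells (7.5 μg) incubated with 12 test-compound concentrations and 0.080 nM [35S]GTPγS in 50 mM Tris-HCl pH 7.4, 3 mM MgCl2, 0.2 mM EGTA, 3 μM GDP, 100 mM NaCl, 60 min at 30° C. Nonspecific binding defined with 10 μM GTPγS; bound label collected by filtration and scintillation counting.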

[4] = system: Male Sprague-Dawley rats; assay: animal or person; type: in vivo, rat
[5] = sc, minimum dose at which maximal reversal of hind paw weight bearing (50±0.5%) was achieved, subcutaneous administration, rat, read-out: MEMD SC CFA

Compound | EC50 [1] [µM] | Ki [2] [µM] | EC50 [3] [µM] | other results
COC1(c2ccnc(C(N)=O)c2)C2CCCC1CN([C@H](C)c1cnn[nH]1)C2 (stereo partly drawn) [Compound 206] | > 0.075 | – | – | –
COC1(c2cccc(C(N)=O)c2)C2CCCC1CN([C@@H](C)c1n[nH]c3cnccc13)C2 (stereo partly drawn) [Compound 190] | < 0.01 | – | – | –
COC1(c2ccnc(C(N)=O)c2)C2CCCC1CN(C1(C)CCC1)C2 (stereo not drawn) [Compound 201] | 0.01 to 0.075 | – | – | –
COC1(c2cc(C(N)=O)ccc2F)C2CCCC1CN(C)C2 (stereo not drawn) [Compound 173] | 0.01 to 0.075 | – | – | –
CCOC1(c2cc(F)cc(C(N)=O)c2)C2CCCC1CNC2 (stereo not drawn) [Compound 192] | 0.01 to 0.075 | – | – | –
COC1(c2ccnc(C(N)=O)c2)C2CCCC1CN(Cc1cnc[nH]1)C2.Cl [Compound 96, 4-((1R,5S,9r)-3-((1H-imidazol-5-yl)methyl)-9-methoxy-3-azabicyclo[3.3.1]nonan-9-yl)picolinamide hydrochloride] | – | < 0.001 | 0.01 to 0.075 | minimal effective dose [4, 5]: 1 mg/kg
COC1(c2cccc(C(N)=O)c2)C2CCCC1CN(C[C@H]1[C@@H]3COC[C@@H]31)C2.Cl (stereo partly drawn) [Compound 176] | – | < 0.001 | < 0.01 | minimal effective dose [4, 5]: 0.1 mg/kg
COC1(c2cccc(C(N)=O)c2)C2CCCC1CN(C1CC3CCC(C1)O3)C2 (stereo not drawn) [Compound 205] | < 0.01 | – | – | –
NC(=O)c1cccc(C2(OCC(F)(F)F)C3CCCC2CNC3)c1 (stereo not drawn) [Compound 184] | 0.01 to 0.075 | – | – | –
COC1(c2ccnc(C(N)=O)c2)C2CCCC1CN(C1CCOCC1)C2.Cl [Compound 56, 4-((1R,5S,9r)-9-methoxy-3-(tetrahydro-2H-pyran-4-yl)-3-azabicyclo[3.3.1]nonan-9-yl)picolinamide hydrochloride] | – | > 0.005 | > 0.075 | minimal effective dose [4, 5]: 3 mg/kg
CCOC1(c2cc(Cl)cc(C(N)=O)c2)C2CCCC1CNC2 (stereo not drawn) [Compound 185] | > 0.075 | – | – | –
COC1(c2cccc(C(N)=O)c2)C2CCCC1CN(CCc1cnn[nH]1)C2.Cl [Compound 155, 3-((1R,5S,9r)-3-(2-(1H-1,2,3-triazol-4-yl)ethyl)-9-methoxy-3-azabicyclo[3.3.1]nonan-9-yl)benzamide hydrochloride] | – | < 0.001 | < 0.01 | minimal effective dose [4, 5]: 1 mg/kg
CO[C@@]1(c2ccnc(C(N)=O)c2)[C@@H]2CCC[C@H]1CN(Cc1ncc(C)[nH]1)C2.Cl [Compound 153, 4-((1R,5S,9r)-9-methoxy-3-((5-methyl-1H-imidazol-2-yl)methyl)-3-azabicyclo[3.3.1]nonan-9-yl)picolinamide hydrochloride] | – | < 0.001 | 0.01 to 0.075 | MEMD SC CFA ([4]; minimum dose at which maximal reversal of hind paw weight bearing (50±0.5%) was achieved, subcutaneous administration, rat): 1 mg/kg
CO[C@@]12CC[C@@]3(C[C@@H]1[C@](C)(O)C(C)(C)C)[C@H]1Cc4ccc(O)c5c4[C@@]3(CCN1CC1CC1)[C@H]2O5 [Buprenorphine, reference compound] | – | – | – | MEMD SC CFA ([4]; rat, in vivo): 0.1 mg/kg
COC1(c2cccc(C(N)=O)c2)C2CCCC1CN([C@H](C)c1n[nH]c3cnccc13)C2 (stereo partly drawn) [Compound 189] | 0.01 to 0.075 | – | – | –
COC1(c2ccnc(C(N)=O)c2)C2CCCC1CN(C[C@H]1CCCCO1)C2 (stereo partly drawn) [Compound 168] | 0.01 to 0.075 | – | – | –
Oc1ccc2c3c1O[C@H]1[C@@H](O)CC[C@@]4(O)[C@@H](C2)N(CC2CCC2)CC[C@]314 [Nalbuphine, reference compound] | – | – | – | minimal effective dose ([4]; Rattus norvegicus, sc, read-out: MEMD SC CFA (mg/kg)): > 10 mg/kg
COC1(c2ccnc(C(N)=O)c2)C2CCCC1CN(C[C@@H]1C[C@@H]3C[C@@H]3C1)C2.Cl (stereo partly drawn) [Compound 104, 4-((1R,5S,9R)-3-((1R,3s,5S)-bicyclo[3.1.0]hexan-3-ylmethyl)-9-methoxy-3-azabicyclo[3.3.1]nonan-9-yl)picolinamide hydrochloride] | – | < 0.001 | 0.01 to 0.075 | minimal effective dose ([4]; po, minimum dose at which maximal reversal of hind paw weight bearing was achieved, dosed orally, rat, read-out: MEMD SC CFA): ≤ 0.1 mg/kg
COC1(c2cc(C(N)=O)ccc2F)C2CCCC1CN(C)C2 (stereo not drawn) [Compound 194] | 0.01 to 0.075 | – | – | –
COC1(c2cccc(C(N)=O)c2)C2CCCC1CN(CCN1C(=O)CCC1=O)C2.Cl [Compound 65, 3-((1R,5S,9r)-3-(2-(2,5-dioxopyrrolidin-1-yl)ethyl)-9-methoxy-3-azabicyclo[3.3.1]nonan-9-yl)benzamide hydrochloride] | – | < 0.001 | < 0.01 | minimal effective dose [4, 5]: 0.1 mg/kg
COCCN1CC2CCCC(C1)C2(OC)c1cccc(C(N)=O)c1.Cl [Compound 128, 3-((1R,5S,9r)-9-methoxy-3-(2-methoxyethyl)-3-azabicyclo[3.3.1]nonan-9-yl)benzamide hydrochloride] | – | < 0.001 | 0.01 to 0.075 | minimal effective dose [4, 5]: 1 mg/kg

Compound | EC50 [1] [µM] | Ki [2] [µM] | EC50 [3] [µM] | other results
COC1(c2cccc(C(N)=O)c2)C2CCCC1CN(C[C@@H]1CCOC1)C2.Cl (single isomer, unassigned) [Compound 143] | – | – | – | minimal effective dose [4, 5]: 1 mg/kg
COC1(c2ccnc(C(N)=O)c2)C2CCCC1CN(C[C@@H]1CCCCO1)C2 (stereo partly drawn) [Compound 169] | 0.01 to 0.075 | – | – | –
COC1(c2ccnc(C(N)=O)c2)C2CCCC1CN(C1CC3CCC(C1)O3)C2 (stereo not drawn) [Compound 204] | 0.01 to 0.075 | – | – | –
COC1(c2ccnc(C(N)=O)c2)C2CCCC1CN(C[C@@H]1C[C@H]3CC[C@@H](C1)O3)C2 (stereo partly drawn) [Compound 165] | 0.01 to 0.075 | – | – | –
COC1(c2cccc(C(N)=O)c2)C2CCCC1CN(Cc1n[nH]c3cnccc13)C2 (stereo not drawn) [Compound 191] | 0.01 to 0.075 | – | – | –
COC1(c2ccnc(C(N)=O)c2)C2CCCC1CN(C[C@H]1CCCO1)C2.Cl (single isomer, unassigned) [Compound 136] | – | – | – | minimal effective dose [4, 5]: 0.3 mg/kg
COC1(c2ccnc(C(N)=O)c2)C2CCCC1CN(C[C@H]1C[C@H]3CC[C@@H](C1)O3)C2 (stereo partly drawn) [Compound 164] | 0.01 to 0.075 | – | – | –
COC1(c2cccc(C(N)=O)c2)C2CCCC1CN(CCC1CC1)C2.Cl [Compound 138, 3-((1R,5S,9r)-3-(2-cyclopropylethyl)-9-methoxy-3-azabicyclo[3.3.1]nonan-9-yl)benzamide hydrochloride] | – | < 0.001 | < 0.01 | minimal effective dose [4, 5]: 0.3 mg/kg
CCOC1(c2cccc(C(N)=O)c2O)C2CCCC1CNC2 (stereo not drawn) [Compound 207] | > 0.075 | – | – | –
COC1(c2cccc(C(N)=O)c2)C2CCCC1CN(C[C@H]1C[C@H]3CC[C@@H](C1)O3)C2 (stereo partly drawn) [Compound 166] | < 0.01 | – | – | –
CCOC1(c2cc(C(N)=O)ccc2F)C2CCCC1CNC2 (stereo not drawn) [Compound 186] | 0.01 to 0.075 | – | – | –
CCOC1(c2cc(C)cc(C(N)=O)c2)C2CCCC1CNC2 (stereo not drawn) [Compound 193] | > 0.075 | – | – | –
COC1(c2cc(C(N)=O)ccc2C)C2CCCC1CN(C)C2 (stereo not drawn) [Compound 172] | > 0.075 | – | – | –
COC1(c2cc(F)cc(C(N)=O)c2)C2CCCC1CNC2 (stereo not drawn) [Compound 181] | 0.01 to 0.075 | – | – | –
COC1(c2cccc(C(N)=O)c2)C2CCCC1CN(C[C@@H]1C[C@H]3CC[C@@H](C1)O3)C2 (stereo partly drawn) [Compound 167] | < 0.01 | – | – | –
COC1(c2ccc(C(N)=O)s2)C2CCCC1CN(CCN1CCOC1=O)C2 [Compound 98, 5-((1R,5S,9r)-9-methoxy-3-(2-(2-oxooxazolidin-3-yl)ethyl)-3-azabicyclo[3.3.1]nonan-9-yl)thiophene-2-carboxamide (S)-2-hydroxysuccinate] | – | > 0.005 | 0.01 to 0.075 | –
COC1(c2cccc(C(N)=O)c2)C2CCCC1CN(CC1COC1)C2 [Compound 51, 3-((1R,5S,9r)-9-methoxy-3-(oxetan-3-ylmethyl)-3-azabicyclo[3.3.1]nonan-9-yl)benzamide (S)-2-hydroxysuccinate] | – | < 0.001 | 0.01 to 0.075 | –
COC1(c2cccc(C(N)=O)c2)C2CCCC1CN([C@@H]1CCCOC1)C2 (single isomer, unassigned) [Compound 141, hydrochloride] | – | < 0.001 | 0.01 to 0.075 | –
COC1(c2ccnc(C(N)=O)c2)C2CCCC1CN(CC(C)C)C2 [Compound 92, 4-((1R,5S,9r)-3-isobutyl-9-methoxy-3-azabicyclo[3.3.1]nonan-9-yl)picolinamide hydrochloride] | – | > 0.005 | > 0.075 | –
COC1(c2ccnc(C(N)=O)c2)C2CCCC1CN(C1(C)CC1)C2 [Compound 4, 4-((1R,5S,9r)-9-methoxy-3-(1-methylcyclopropyl)-3-azabicyclo[3.3.1]nonan-9-yl)picolinamide hydrochloride] | – | > 0.005 | > 0.075 | –
COC1(c2ccc(C(N)=O)s2)C2CCCC1CN(C1CCOCC1)C2 [Compound 71, 5-((1R,5S,9r)-9-methoxy-3-(tetrahydro-2H-pyran-4-yl)-3-azabicyclo[3.3.1]nonan-9-yl)thiophene-2-carboxamide hydrochloride] | – | > 0.005 | > 0.075 | –
